Results taken from PMC5458547, “Discovery of first-in-class reversible dual small molecule inhibitors against G9a and DNMTs in hematological malignancies” (Nature Communications, 2017).
pKd: −log10 of the molar value.

How the values were obtained:
Experiment in all cases: KINOMEscan kinase profiling
Assay type in all cases: binding
CHEK1 = target: T1, CHEK1 (Homo sapiens, UniProt O14757); details: read-out: Percent Control
T1 construct: purchased DiscoverX KINOMEscan (kinases); BPS Bioscience (epigenetic targets)
T1 sequence (O14757 whole entry): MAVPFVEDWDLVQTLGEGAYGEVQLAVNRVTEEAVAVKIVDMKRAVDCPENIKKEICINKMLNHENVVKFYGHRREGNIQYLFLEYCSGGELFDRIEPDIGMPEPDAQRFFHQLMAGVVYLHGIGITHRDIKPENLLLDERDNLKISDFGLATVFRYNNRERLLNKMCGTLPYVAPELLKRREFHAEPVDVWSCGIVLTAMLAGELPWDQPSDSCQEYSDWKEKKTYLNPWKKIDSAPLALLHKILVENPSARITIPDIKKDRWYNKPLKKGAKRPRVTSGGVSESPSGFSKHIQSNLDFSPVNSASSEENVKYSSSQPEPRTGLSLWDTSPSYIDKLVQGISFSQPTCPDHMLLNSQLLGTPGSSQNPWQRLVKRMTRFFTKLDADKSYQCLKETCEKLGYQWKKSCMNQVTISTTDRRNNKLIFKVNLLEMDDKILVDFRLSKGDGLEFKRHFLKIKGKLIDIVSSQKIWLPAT
Experimental: (§1) Kinase Selectivity Profiling
(§2) (out of which 90 are non-mutant kinases) was performed at DiscoverRx (http://www.discoverx.com/home) using the KINOMEscan™ screening platform at a test concentration of 10 µM. Results for primary screen […]
(§3) positive control signal) / (negative control signal – positive control signal) *100, where negative control corresponds to DMSO treatment (100%) and positive control to the signal obtained with a control competitive compound (0%). […]
(§4) using the Hill equation. Each target was assayed in duplicate. […]

ADCK3 = target: T2, ADCK3 (Homo sapiens, UniProt Q8NI60); details: read-out: Percent Control
T2 construct: purchased DiscoverX KINOMEscan (kinases); BPS Bioscience (epigenetic targets)
Experimental: as §1, §2, §3, §4

PDPK1 = target: T3, PDPK1 (Homo sapiens, UniProt O15530); details: read-out: Percent Control
T3 construct: purchased DiscoverX KINOMEscan (kinases); BPS Bioscience (epigenetic targets)
Experimental: as §1, §2, §3, §4

CDK9 = target: T4, CDK9 (Homo sapiens, UniProt P50750); details: read-out: Percent Control
T4 construct: purchased DiscoverX KINOMEscan (kinases); BPS Bioscience (epigenetic targets)
Experimental: as §1, §2, §3, §4

FGFR3 = target: T5, FGFR3 (Homo sapiens, UniProt P22607); details: read-out: Percent Control
T5 construct: purchased DiscoverX KINOMEscan (kinases); BPS Bioscience (epigenetic targets)
Experimental: as §1, §2, §3, §4

INSR = target: T6, INSR (Homo sapiens, UniProt P06213); details: read-out: Percent Control
T6 construct: purchased DiscoverX KINOMEscan (kinases); BPS Bioscience (epigenetic targets)
Experimental: as §1, §2, §3, §4

BTK = target: T7, BTK (Homo sapiens, UniProt Q06187)
T7 construct: purchased DiscoverRx (KINOMEscan contract screen)
T7 sequence (Q06187 whole entry): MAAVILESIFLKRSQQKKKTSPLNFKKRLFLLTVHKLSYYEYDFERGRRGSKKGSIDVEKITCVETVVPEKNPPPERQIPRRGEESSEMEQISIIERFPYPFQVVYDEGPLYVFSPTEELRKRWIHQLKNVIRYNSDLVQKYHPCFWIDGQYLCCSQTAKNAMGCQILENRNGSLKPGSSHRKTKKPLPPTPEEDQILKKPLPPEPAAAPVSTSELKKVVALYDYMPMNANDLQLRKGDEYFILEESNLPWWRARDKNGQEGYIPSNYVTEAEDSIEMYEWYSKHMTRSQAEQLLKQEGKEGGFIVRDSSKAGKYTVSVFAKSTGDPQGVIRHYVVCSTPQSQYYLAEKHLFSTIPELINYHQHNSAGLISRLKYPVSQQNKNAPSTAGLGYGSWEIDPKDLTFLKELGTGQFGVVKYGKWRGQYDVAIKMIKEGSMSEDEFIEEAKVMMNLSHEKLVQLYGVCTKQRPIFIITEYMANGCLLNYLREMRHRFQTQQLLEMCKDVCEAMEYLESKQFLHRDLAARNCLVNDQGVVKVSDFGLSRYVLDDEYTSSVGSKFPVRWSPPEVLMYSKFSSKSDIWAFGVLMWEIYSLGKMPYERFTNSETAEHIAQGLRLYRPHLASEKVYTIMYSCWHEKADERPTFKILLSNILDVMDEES
Experimental: as §1, §2, §3, §4

p38-alpha = target: T8, p38-alpha (Homo sapiens, UniProt Q16539); details: read-out: Percent Control
T8 construct: purchased DiscoverX KINOMEscan (kinases); BPS Bioscience (epigenetic targets)
Experimental: as §1, §2, §3, §4

JNK3 = target: T9, JNK3 (Homo sapiens, UniProt P53779); details: read-out: Percent Control
T9 construct: purchased DiscoverX KINOMEscan (kinases); BPS Bioscience (epigenetic targets)
Experimental: as §1, §2, §3, §4

EGFR = target: T10, EGFR (Homo sapiens, UniProt P00533); details: read-out: Percent Control
T10 construct: purchased DiscoverX KINOMEscan (kinases); BPS Bioscience (epigenetic targets)
Experimental: as §1, §2, §3, §4

PIM2 = target: T11, PIM2 (Homo sapiens, UniProt Q9P1W9); details: read-out: Percent Control
T11 construct: purchased DiscoverX KINOMEscan (kinases); BPS Bioscience (epigenetic targets)
Experimental: as §1, §2, §3, §4

MLK1 = target: T12, MLK1 (Homo sapiens, UniProt P80192); details: read-out: Percent Control
T12 construct: purchased DiscoverX KINOMEscan (kinases); BPS Bioscience (epigenetic targets)
Experimental: as §1, §2, §3, §4

BMPR2 = target: T13, BMPR2 (Homo sapiens, UniProt Q13873); details: read-out: Percent Control
T13 construct: purchased DiscoverX KINOMEscan (kinases); BPS Bioscience (epigenetic targets)
T13 sequence (Q13873 27-1038): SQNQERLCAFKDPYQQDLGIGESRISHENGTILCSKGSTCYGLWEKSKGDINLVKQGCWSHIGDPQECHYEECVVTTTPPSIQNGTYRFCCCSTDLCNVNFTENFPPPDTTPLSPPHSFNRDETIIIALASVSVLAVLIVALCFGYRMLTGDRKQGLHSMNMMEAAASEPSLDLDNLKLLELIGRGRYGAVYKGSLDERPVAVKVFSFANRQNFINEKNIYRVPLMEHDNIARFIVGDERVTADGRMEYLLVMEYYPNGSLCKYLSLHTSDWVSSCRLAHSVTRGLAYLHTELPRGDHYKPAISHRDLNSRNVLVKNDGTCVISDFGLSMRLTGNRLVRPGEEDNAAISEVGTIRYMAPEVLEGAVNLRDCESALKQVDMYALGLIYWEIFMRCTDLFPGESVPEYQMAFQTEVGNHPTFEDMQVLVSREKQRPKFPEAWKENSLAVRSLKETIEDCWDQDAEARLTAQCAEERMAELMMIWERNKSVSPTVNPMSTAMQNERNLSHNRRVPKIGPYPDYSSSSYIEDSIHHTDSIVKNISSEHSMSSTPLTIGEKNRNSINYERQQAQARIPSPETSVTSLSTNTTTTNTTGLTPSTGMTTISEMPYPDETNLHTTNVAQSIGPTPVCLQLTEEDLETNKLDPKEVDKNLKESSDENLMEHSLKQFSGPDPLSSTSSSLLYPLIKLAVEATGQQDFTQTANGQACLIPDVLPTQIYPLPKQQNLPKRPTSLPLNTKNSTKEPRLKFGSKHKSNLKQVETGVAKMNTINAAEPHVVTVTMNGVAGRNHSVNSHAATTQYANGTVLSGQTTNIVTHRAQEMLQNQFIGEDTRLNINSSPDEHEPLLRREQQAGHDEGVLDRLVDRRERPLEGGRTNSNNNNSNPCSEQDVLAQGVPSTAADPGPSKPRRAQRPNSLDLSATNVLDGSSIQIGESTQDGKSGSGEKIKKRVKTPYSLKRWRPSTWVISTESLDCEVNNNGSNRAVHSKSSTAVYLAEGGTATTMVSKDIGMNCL
Experimental: as §1, §2, §3, §4

ERBB4 = target: T14, ERBB4 (Homo sapiens, UniProt Q15303); details: read-out: Percent Control
T14 construct: purchased DiscoverX KINOMEscan (kinases); BPS Bioscience (epigenetic targets)
Experimental: as §1, §2, §3, §4

PIK3CA = target: T15, PIK3CA (Homo sapiens, UniProt P42336); details: read-out: Percent Control
T15 construct: purchased DiscoverX KINOMEscan (kinases); BPS Bioscience (epigenetic targets)
Experimental: as §1, §2, §3, §4

CDK2 = target: T16, CDK2 (Homo sapiens, UniProt P24941); details: read-out: Percent Control
T16 construct: purchased DiscoverX KINOMEscan (kinases); BPS Bioscience (epigenetic targets)
Experimental: as §1, §2, §3, §4

ROCK2 = target: T17, ROCK2 (Homo sapiens, UniProt O75116)
T17 construct: purchased DiscoverRx (DiscoverX), KINOMEscan screening platform
T17 sequence (O75116 whole entry): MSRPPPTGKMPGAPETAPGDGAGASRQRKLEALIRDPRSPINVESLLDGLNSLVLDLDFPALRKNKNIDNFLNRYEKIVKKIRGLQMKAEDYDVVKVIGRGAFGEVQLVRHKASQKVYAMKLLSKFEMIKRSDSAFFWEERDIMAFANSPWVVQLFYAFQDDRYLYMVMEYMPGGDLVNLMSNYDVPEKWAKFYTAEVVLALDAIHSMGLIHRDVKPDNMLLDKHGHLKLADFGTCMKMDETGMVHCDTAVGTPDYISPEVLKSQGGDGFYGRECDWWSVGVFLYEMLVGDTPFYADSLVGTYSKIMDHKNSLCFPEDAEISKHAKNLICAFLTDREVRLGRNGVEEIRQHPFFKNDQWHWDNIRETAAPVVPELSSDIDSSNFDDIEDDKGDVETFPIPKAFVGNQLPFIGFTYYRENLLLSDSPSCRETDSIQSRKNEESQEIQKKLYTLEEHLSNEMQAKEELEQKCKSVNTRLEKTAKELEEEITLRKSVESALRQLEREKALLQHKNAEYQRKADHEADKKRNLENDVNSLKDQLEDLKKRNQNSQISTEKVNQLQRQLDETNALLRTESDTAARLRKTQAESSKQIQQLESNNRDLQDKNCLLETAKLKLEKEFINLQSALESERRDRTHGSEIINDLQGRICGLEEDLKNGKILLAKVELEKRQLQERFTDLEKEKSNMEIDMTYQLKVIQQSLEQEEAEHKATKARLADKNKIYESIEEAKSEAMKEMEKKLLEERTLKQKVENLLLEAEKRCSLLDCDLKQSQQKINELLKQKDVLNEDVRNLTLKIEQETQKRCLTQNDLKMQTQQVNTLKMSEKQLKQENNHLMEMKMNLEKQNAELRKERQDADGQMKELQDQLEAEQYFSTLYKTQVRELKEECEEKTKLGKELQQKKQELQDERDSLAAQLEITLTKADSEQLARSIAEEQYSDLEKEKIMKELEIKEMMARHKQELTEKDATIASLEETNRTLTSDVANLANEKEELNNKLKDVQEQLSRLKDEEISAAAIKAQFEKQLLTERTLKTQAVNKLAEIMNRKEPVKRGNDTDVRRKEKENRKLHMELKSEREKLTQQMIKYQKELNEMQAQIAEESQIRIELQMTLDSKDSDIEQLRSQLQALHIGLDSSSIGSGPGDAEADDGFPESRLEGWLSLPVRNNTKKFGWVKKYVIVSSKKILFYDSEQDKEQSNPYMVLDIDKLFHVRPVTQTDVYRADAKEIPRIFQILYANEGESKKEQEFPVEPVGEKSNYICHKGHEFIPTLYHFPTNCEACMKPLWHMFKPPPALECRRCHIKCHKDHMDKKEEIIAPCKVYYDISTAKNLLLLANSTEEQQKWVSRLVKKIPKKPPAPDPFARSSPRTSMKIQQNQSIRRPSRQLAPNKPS
Experimental: as §1, §2, §3, §4

AXL = target: T18, AXL (Homo sapiens, UniProt P30530); details: read-out: Percent Control
T18 construct: purchased DiscoverX KINOMEscan (kinases); BPS Bioscience (epigenetic targets)
Experimental: as §1, §2, §3, §4

RET = target: T19, RET (Homo sapiens, UniProt P07949); details: read-out: Percent Control
T19 construct: purchased DiscoverX KINOMEscan (kinases); BPS Bioscience (epigenetic targets)
Experimental: as §1, §2, §3, §4

[1] = target: T20, JAK2(JH1domain-catalytic) (Homo sapiens, UniProt O60674); details: read-out: Percent Control
T20 construct: JAK2(JH1domain-catalytic); purchased DiscoverX KINOMEscan (kinases); BPS Bioscience (epigenetic targets)
Experimental: as §1, §2, §3, §4

BRAF = target: T21, BRAF (Homo sapiens, UniProt P15056); details: read-out: Percent Control
T21 construct: purchased DiscoverX KINOMEscan (kinases); BPS Bioscience (epigenetic targets)
Experimental: as §1, §2, §3, §4

CSNK1G2 = target: T22, CSNK1G2 (Homo sapiens, UniProt P78368); details: read-out: Percent Control
T22 construct: purchased DiscoverX KINOMEscan (kinases); BPS Bioscience (epigenetic targets)
Experimental: as §1, §2, §3, §4

[2] = target: T23, ABL1(E255K)-phosphorylated (Homo sapiens, UniProt P00519, E255K); details: read-out: Percent Control
T23 construct: purchased DiscoverX KINOMEscan (kinases); BPS Bioscience (epigenetic targets)
Experimental: as §1, §2, §3, §4

ABL1-nonphosphorylated = target: T24, ABL1-nonphosphorylated (Homo sapiens, UniProt P00519); details: read-out: Percent Control
T24 construct: purchased DiscoverX KINOMEscan (kinases); BPS Bioscience (epigenetic targets)
Experimental: as §1, §2, §3, §4

CSNK1D = target: T25, CSNK1D (Homo sapiens, UniProt P48730); details: read-out: Percent Control
T25 construct: purchased DiscoverX KINOMEscan (kinases); BPS Bioscience (epigenetic targets)
Experimental: as §1, §2, §3, §4

TGFBR1 = target: T26, TGFBR1 (Homo sapiens, UniProt P36897); details: read-out: Percent Control
T26 construct: purchased DiscoverX KINOMEscan (kinases); BPS Bioscience (epigenetic targets)
Experimental: as §1, §2, §3, §4

[3] = target: T27, TYK2(JH1domain-catalytic) (Homo sapiens, UniProt P29597); details: read-out: Percent Control
T27 construct: TYK2(JH1domain-catalytic); purchased DiscoverX KINOMEscan (kinases); BPS Bioscience (epigenetic targets)
Experimental: as §1, §2, §3, §4

SRC = target: T28, SRC (Homo sapiens, UniProt P12931); details: read-out: Percent Control
T28 construct: purchased DiscoverX KINOMEscan (kinases); BPS Bioscience (epigenetic targets)
Experimental: as §1, §2, §3, §4

DCAMKL1 = target: T29, DCAMKL1 (Homo sapiens, UniProt O15075); details: read-out: Percent Control
T29 construct: purchased DiscoverX KINOMEscan (kinases); BPS Bioscience (epigenetic targets)
Experimental: as §1, §2, §3, §4

PDGFRA = target: T30, PDGFRA (Homo sapiens, UniProt P16234); details: read-out: Percent Control
T30 construct: purchased DiscoverX KINOMEscan (kinases); BPS Bioscience (epigenetic targets)
T30 sequence (P16234 24-1089): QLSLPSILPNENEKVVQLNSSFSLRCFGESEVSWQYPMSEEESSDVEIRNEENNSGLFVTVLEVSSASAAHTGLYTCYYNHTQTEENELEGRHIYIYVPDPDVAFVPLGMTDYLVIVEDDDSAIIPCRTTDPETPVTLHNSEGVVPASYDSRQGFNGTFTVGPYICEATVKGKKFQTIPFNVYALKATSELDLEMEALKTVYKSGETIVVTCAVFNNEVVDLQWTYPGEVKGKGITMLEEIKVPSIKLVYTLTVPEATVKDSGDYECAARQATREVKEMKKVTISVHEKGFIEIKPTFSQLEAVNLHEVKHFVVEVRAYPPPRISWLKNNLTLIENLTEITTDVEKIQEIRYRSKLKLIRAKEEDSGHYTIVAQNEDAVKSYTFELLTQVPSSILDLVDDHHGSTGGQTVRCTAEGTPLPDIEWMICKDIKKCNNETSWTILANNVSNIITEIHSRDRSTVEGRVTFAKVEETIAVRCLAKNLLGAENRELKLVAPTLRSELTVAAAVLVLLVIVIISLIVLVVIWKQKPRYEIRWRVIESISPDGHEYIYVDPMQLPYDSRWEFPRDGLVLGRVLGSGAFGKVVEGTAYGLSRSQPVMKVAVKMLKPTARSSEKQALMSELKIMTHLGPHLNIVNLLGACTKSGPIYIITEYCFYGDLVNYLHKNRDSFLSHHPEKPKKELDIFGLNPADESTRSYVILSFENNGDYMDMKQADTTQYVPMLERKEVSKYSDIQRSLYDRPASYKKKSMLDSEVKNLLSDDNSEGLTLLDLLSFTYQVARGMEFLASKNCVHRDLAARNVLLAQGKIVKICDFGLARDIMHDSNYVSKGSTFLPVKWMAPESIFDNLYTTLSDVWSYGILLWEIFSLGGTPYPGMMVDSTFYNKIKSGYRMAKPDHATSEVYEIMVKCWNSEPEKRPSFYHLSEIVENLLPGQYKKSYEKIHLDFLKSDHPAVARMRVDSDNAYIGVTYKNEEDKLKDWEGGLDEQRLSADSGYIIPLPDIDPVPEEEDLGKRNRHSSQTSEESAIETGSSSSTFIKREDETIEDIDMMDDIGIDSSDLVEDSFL
Experimental: as §1, §2, §3, §4

IKK-beta = target: T31, IKK-beta (Homo sapiens, UniProt O14920); details: read-out: Percent Control
T31 construct: purchased DiscoverX KINOMEscan (kinases); BPS Bioscience (epigenetic targets)
Experimental: as §1, §2, §3, §4

ERK1 = target: T32, ERK1 (Homo sapiens, UniProt P27361); details: read-out: Percent Control
T32 construct: purchased DiscoverX KINOMEscan (kinases); BPS Bioscience (epigenetic targets)
Experimental: as §1, §2, §3, §4

EPHA2 = target: T33, EPHA2 (Homo sapiens, UniProt P29317); details: read-out: Percent Control
T33 construct: purchased DiscoverX KINOMEscan (kinases); BPS Bioscience (epigenetic targets)
Experimental: as §1, §2, §3, §4

[4] = target: T34, ABL1(T315I)-phosphorylated (Homo sapiens, UniProt P00519, T315I); details: read-out: Percent Control
T34 construct: purchased DiscoverX KINOMEscan (kinases); BPS Bioscience (epigenetic targets)
Experimental: as §1, §2, §3, §4

p38-beta = target: T35, p38-beta (Homo sapiens, UniProt Q15759); details: read-out: Percent Control
T35 construct: purchased DiscoverX KINOMEscan (kinases); BPS Bioscience (epigenetic targets)
Experimental: as §1, §2, §3, §4

KIT(V559D,T670I) = target: T36, KIT(V559D,T670I) (Homo sapiens, UniProt P10721, T670I/V559D); details: read-out: Percent Control
T36 construct: purchased DiscoverX KINOMEscan (kinases); BPS Bioscience (epigenetic targets)
Experimental: as §1, §2, §3, §4

RIOK2 = target: T37, RIOK2 (Homo sapiens, UniProt Q9BVS4); details: read-out: Percent Control
T37 construct: purchased DiscoverX KINOMEscan (kinases); BPS Bioscience (epigenetic targets)
Experimental: as §1, §2, §3, §4

PCTK1 = target: T38, PCTK1 (Homo sapiens, UniProt Q00536); details: read-out: Percent Control
T38 construct: purchased DiscoverX KINOMEscan (kinases); BPS Bioscience (epigenetic targets)
T38 sequence (Q00536 whole entry): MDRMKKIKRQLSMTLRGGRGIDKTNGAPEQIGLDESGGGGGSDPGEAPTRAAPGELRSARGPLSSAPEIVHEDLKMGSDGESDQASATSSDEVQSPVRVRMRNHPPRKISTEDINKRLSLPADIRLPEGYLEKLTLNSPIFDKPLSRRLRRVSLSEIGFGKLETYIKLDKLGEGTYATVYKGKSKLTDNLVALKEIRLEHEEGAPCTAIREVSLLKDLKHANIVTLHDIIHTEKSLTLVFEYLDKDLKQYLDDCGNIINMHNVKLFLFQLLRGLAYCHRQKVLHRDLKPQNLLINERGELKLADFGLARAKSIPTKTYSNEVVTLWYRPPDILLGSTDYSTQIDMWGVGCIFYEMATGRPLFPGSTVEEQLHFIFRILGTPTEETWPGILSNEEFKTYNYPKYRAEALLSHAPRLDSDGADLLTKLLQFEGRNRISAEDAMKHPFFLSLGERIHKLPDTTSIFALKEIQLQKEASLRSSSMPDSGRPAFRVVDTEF
Experimental: as §1, §2, §3, §4

MKNK2 = target: T39, MKNK2 (Homo sapiens, UniProt Q9HBH9); details: read-out: Percent Control
T39 construct: purchased DiscoverX KINOMEscan (kinases); BPS Bioscience (epigenetic targets)
Experimental: as §1, §2, §3, §4

[5] = 10 µM, read-out: Percent Control

## COc1cc2c(NC3CCN(C)CC3)cc(-c3ccc(C)o3)nc2cc1OCCCN1CCCC1 [CM-272, 6-methoxy-2-(5-methyl-2-furyl)-N-(1-methyl-4-piperidyl)-7-(3-pyrrolidin-1-ylpropoxy)quinolin-4-amine]
CHEK1
  remaining binding at 10 µM: 99%
ADCK3
  remaining binding at 10 µM: 100%
PDPK1
  remaining binding at 10 µM: 100%
CDK9
  remaining binding at 10 µM: 96%
FGFR3
  remaining binding at 10 µM: 100%
INSR
  remaining binding at 10 µM: 5.1%
BTK; [5]
  remaining binding at 10 µM: 0.5%
BTK; KINOMEscan
  pKd: 5.96
p38-alpha
  remaining binding at 10 µM: 96%
JNK3
  remaining binding at 10 µM: 8.9%
EGFR
  remaining binding at 10 µM: 100%
PIM2
  remaining binding at 10 µM: 93%
MLK1
  remaining binding at 10 µM: 100%
BMPR2
  remaining binding at 10 µM: 32%
ERBB4
  remaining binding at 10 µM: 97%
PIK3CA
  remaining binding at 10 µM: 40%
CDK2
  remaining binding at 10 µM: 100%
ROCK2; [5]
  remaining binding at 10 µM: 0.3%
ROCK2; KINOMEscan
  pKd: 5.77
AXL
  remaining binding at 10 µM: 100%
RET
  remaining binding at 10 µM: 100%
[1]
  remaining binding at 10 µM: 10%
BRAF
  remaining binding at 10 µM: 14%
CSNK1G2
  remaining binding at 10 µM: 95%
[2]
  remaining binding at 10 µM: 5.5%
ABL1-nonphosphorylated
  remaining binding at 10 µM: 9.4%
CSNK1D
  remaining binding at 10 µM: 95%
TGFBR1
  remaining binding at 10 µM: 78%
[3]
  remaining binding at 10 µM: 22%
SRC
  remaining binding at 10 µM: 100%
DCAMKL1
  remaining binding at 10 µM: 22%
PDGFRA
  remaining binding at 10 µM: 14%
IKK-beta
  remaining binding at 10 µM: 13%
ERK1
  remaining binding at 10 µM: 100%
EPHA2
  remaining binding at 10 µM: 100%
[4]
  remaining binding at 10 µM: 25%
p38-beta
  remaining binding at 10 µM: 92%
KIT(V559D,T670I)
  remaining binding at 10 µM: 100%
RIOK2
  remaining binding at 10 µM: 27%
PCTK1
  remaining binding at 10 µM: 23%
MKNK2
  remaining binding at 10 µM: 18%
